We go through 19 compounds from patent US10717716B2, “1,3,4-oxadiazole derivative compounds as histone deacetylase 6 inhibitor, and the pharmaceutical composition comprising the same” (Chong Kun Dang Pharmaceutical Corp., priority 2015, dated 2020).

The target in the test is T1, human recombinant HDAC6 (Homo sapiens, UniProt Q9UBN7).
T1 construct: purchased Calbiochem 382180
T1 sequence (Q9UBN7 1-1215): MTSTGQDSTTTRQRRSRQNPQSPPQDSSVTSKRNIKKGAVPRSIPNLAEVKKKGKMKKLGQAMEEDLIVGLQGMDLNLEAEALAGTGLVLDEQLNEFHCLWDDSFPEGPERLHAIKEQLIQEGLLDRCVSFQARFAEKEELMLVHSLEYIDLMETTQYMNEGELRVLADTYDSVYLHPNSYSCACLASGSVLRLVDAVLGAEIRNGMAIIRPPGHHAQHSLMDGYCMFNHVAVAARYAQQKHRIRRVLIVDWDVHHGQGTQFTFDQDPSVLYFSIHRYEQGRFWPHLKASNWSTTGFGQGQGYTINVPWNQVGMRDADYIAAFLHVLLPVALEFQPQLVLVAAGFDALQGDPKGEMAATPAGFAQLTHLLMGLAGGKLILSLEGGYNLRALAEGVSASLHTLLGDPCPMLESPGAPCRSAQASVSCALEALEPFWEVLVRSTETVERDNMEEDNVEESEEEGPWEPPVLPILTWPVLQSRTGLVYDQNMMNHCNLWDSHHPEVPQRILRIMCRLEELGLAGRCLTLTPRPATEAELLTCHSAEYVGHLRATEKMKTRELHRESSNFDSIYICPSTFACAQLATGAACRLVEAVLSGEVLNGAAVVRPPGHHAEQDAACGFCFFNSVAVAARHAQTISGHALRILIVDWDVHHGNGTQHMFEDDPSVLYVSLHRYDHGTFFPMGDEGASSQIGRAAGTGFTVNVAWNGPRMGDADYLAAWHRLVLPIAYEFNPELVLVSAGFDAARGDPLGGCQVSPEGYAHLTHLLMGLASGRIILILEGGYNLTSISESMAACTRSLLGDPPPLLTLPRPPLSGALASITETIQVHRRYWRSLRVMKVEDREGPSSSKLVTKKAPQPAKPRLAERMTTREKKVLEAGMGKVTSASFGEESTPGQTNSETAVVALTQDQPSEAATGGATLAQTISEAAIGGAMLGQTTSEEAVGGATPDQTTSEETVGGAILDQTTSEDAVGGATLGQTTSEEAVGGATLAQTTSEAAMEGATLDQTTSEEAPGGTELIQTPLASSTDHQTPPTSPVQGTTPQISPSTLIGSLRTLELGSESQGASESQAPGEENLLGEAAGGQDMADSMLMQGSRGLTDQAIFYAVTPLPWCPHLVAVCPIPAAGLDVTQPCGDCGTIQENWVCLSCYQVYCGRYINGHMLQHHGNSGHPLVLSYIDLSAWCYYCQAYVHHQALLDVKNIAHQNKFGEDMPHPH
Put plainly: HDAC6 enzyme activity inhibition assay (HDAC Fluorimetric Drug Discovery Kit). In kind it is biochemical. As to conditions: for HDAC6 selectivity (fold): HDAC6 over HDAC1; for IC50: human recombinant HDAC6, same protocol as HDAC1, read-out: HDAC6. How it is done:
In order to examine the HDAC6 selectivity of the compounds of formula I of the present invention by HDAC1 and HDAC6 enzymatic activity inhibition assays, an experiment was performed using a conventional substance as a control.
HDAC enzyme activity was measured using a HDAC Fluorimetric Drug Discovery Kit (BML-AK511, 516, Enzo Life Science). For the HDAC1 enzyme activity test, human recombinant HDAC1 (BML-SE456) was used as an enzyme source, and Fluor de Lys®-“SIRT1 (BNL-KI177) was used as a substrate. A 5-fold dilution of the compound was seeded into a 96-well plate, and then 0.3 μg of the enzyme and 10 μM of the substrate were added to each well of the plate and allowed to react at 30° C. for 60 minutes. Then, Fluor de Lys®-Developer II (BML-KI176) was added thereto and allowed to react for 30 minutes, after which the fluorescence value (Ex 360, Em 460) was measured using a multi-plate reader (Flexstation 3, Molecular Device). The HDAC6 enzyme was tested using human recombinant HDAC6 (382180) (Calbiochem) according to the same protocol as the HDAC1 enzyme activity test method. Based on the resulting values, each IC5, value was calculated using GraphPad Prism4.0 program.

With `CCN(Cc1ccc(-c2nnc(C(F)(F)F)o2)cc1)C(=O)N1CCS(=O)(=O)CC1` [Compound 21375, N-ethyl-N-(4-(5-(trifluoromethyl)-1,3,4-oxadiazol-2-yl)benzyl)thiomorpholine-4-carboxamide 1,1-dioxide], the “HDAC6 selectivity (fold)” value is 6 fold and the IC50 turned out to be 1750 nM.
In the case of `C[C@@H]1CN(C(=O)N(Cc2ccc(-c3nnc(C(F)(F)F)o3)cc2)c2ccccc2)C[C@H](C)N1Cc1ccccc1` [Compound 21376, (3S,5R)-4-Benzyl-3,5-dimethyl-N-phenyl-N-(4-(5-(trifluoromethyl)-1,3,4-oxadiazol-2-yl)benzyl)piperazine-1-carboxamide], the “HDAC6 selectivity (fold)” value is 22 fold and the IC50 is 448 nM.
The corresponding values for `O=C(N1CCC(F)(F)CC1)N(Cc1ccc(-c2nnc(C(F)(F)F)o2)cc1)c1ccccc1` [Compound 21377, 4,4-Difluoro-N-phenyl-N-(4-(5-(trifluoromethyl)-1,3,4-oxadiazol-2-yl)benzyl)piperidine-1-carboxamide] are 30 fold and 334 nM.
In the case of `CN1CCN(C(=O)N(Cc2ccc(-c3nnc(C(F)F)o3)cc2F)c2ccccc2)CC1` [Compound 21378, N-(4-(5-(difluoromethyl)-1,3,4-oxadiazol-2-yl)-2-fluorobenzyl)-4-methyl-N-phenylpiperazine-1-carboxamide], the “HDAC6 selectivity (fold)” value was found to be 500 fold and the IC50 was 20 nM.
The corresponding values for `CN1CCCN(C(=O)N(Cc2ccc(-c3nnc(C(F)(F)F)o3)cc2)c2ccccc2)CC1` [Compound 21379, 4-Methyl-N-phenyl-N-(4-(5-(trifluoromethyl)-1,3,4-oxadiazol-2-yl)benzyl)-1,4-diazepane-1-carboxamide] are 132 fold and 76 nM.
On to `C[C@@H]1CN(C(=O)N(Cc2ccc(-c3nnc(C(F)(F)F)o3)cc2)c2ccccc2)C[C@H](C)O1` [Compound 21380, (2S,6R)-2,6-Dimethyl-N-phenyl-N-(4-(5-(trifluoromethyl)-1,3,4-oxadiazol-2-yl)benzyl) morpholine-4-carboxamide], for which the “HDAC6 selectivity (fold)” value is given as 61 fold and the IC50 stood at 165 nM.
Turning to `CC(C)(C)N1CCN(C(=O)N(Cc2ccc(-c3nnc(C(F)(F)F)o3)cc2)c2ccccc2)CC1` [Compound 21381, 4-(Tert-butyl)-N-phenyl-N-(4-(5-(trifluoromethyl)-1,3,4-oxadiazol-2-yl)benzyl)piperazine-1-carboxamide], the “HDAC6 selectivity (fold)” value worked out at 76 fold and the IC50 amounted to 132 nM.
The corresponding values for `CC(C)(C)N1CCN(C(=O)N(Cc2ccc(-c3nnc(C(F)(F)F)o3)cc2F)c2ccccc2)CC1` [Compound 21382, 4-(Tert-butyl)-N-(2-fluoro-4-(5-(trifluoromethyl)-1,3,4-oxadiazol-2-yl)benzyl)-N-phenylpiperazine-1-carboxamide] are 127 fold and 79 nM.
As to `CC(C)(C)N1CCN(C(=O)N(Cc2ccc(-c3nnc(C(F)F)o3)cc2F)c2ccccc2)CC1` [Compound 21383, 4-(Tert-butyl)-N-(4-(5-(difluoromethyl)-1,3,4-oxadiazol-2-yl)-2-fluorobenzyl)-N-phenylpiperazine-1-carboxamide], the “HDAC6 selectivity (fold)” value was 200 fold and the IC50 was determined as 50 nM.
In the case of `O=C(N1CCN(CCO)CC1)N(Cc1ccc(-c2nnc(C(F)(F)F)o2)cc1)c1ccccc1` [Compound 21384, 4-(2-Hydroxyethyl)-N-phenyl-N-(4-(5-(trifluoromethyl)-1,3,4-oxadiazol-2-yl)benzyl)piperazine-1-carboxamide], the “HDAC6 selectivity (fold)” value is listed as 127 fold and the IC50 is 79 nM.
In the same order, the values of `C[C@@H]1CN(C(=O)N(Cc2ccc(-c3nnc(C(F)(F)F)o3)cc2)c2ccccc2)C[C@H](C)N1` [Compound 21385, (3S,5R)-3,5-Dimethyl-N-phenyl-N-(4-(5-(trifluoromethyl)-1,3,4-oxadiazol-2-yl)benzyl)piperazine-1-carboxamide] are 175 fold and 57 nM.
In the same order, the values of `C[C@@H]1CN(C(=O)N(Cc2ccc(-c3nnc(C(F)(F)F)o3)cc2)c2ccccc2)C[C@H](C)N1C` [Compound 21386, (3R,5S)-3,4,5-Trimethyl-N-phenyl-N-(4-(5-(trifluoromethyl)-1,3,4-oxadiazol-2-yl)benzyl)piperazine-1-carboxamide] are 213 fold and 47 nM.
As to `CC(=O)N1[C@H](C)CN(C(=O)N(Cc2ccc(-c3nnc(C(F)(F)F)o3)cc2)c2ccccc2)C[C@@H]1C` [Compound 21387, (3R,5S)-4-Acetyl-3,5-dimethyl-N-phenyl-N-(4-(5-(trifluoromethyl)-1,3,4-oxadiazol-2-yl)benzyl)piperazine-1-carboxamide], the “HDAC6 selectivity (fold)” value came out at 41 fold and the IC50 was 241 nM.
The corresponding values for `C[C@@H]1CN(C(=O)N(Cc2ccc(-c3nnc(C(F)(F)F)o3)cc2)c2ccccc2)C[C@H](C)N1S(C)(=O)=O` [Compound 21388, (3R,5S)-3,5-Dimethyl-4-(methylsulfonyl)-N-phenyl-N-(4-(5-(trifluoromethyl)-1,3,4-oxadiazol-2-yl)benzyl)piperazine-1-carboxamide] are 42 fold and 240 nM.
In the same order, the values of `O=C(N1CCS(=O)(=O)CC1)N(Cc1ccc(-c2nnc(C(F)(F)F)o2)cc1)c1cccc(C(F)(F)F)c1` [Compound 21391, N-(4-(5-(trifluoromethyl)-1,3,4-oxadiazol-2-yl)benzyl)-N-(3-(trifluoromethyl)phenyl)thiomorpholine-4-carboxamide 1,1-dioxide] are 27 fold and 366 nM.
Take `O=C(N1CCS(=O)(=O)CC1)N(Cc1ccc(-c2nnc(C(F)(F)F)o2)cc1)c1cccc(F)c1` [Compound 21392, N-(3-fluorophenyl)-N-(4-(5-(trifluoromethyl)-1,3,4-oxadiazol-2-yl)benzyl)thiomorpholine-4-carboxamide 1,1-dioxide]: the “HDAC6 selectivity (fold)” value was 65 fold and the IC50 was 153 nM.
For the compound `O=C(N1CCS(=O)(=O)CC1)N(Cc1ccc(-c2nnc(C(F)(F)F)o2)cc1)c1ccc(Cl)cc1` [Compound 21394, N-(4-chlorophenyl)-N-(4-(5-(trifluoromethyl)-1,3,4-oxadiazol-2-yl)benzyl)thiomorpholine-4-carboxamide 1,1-dioxide], the “HDAC6 selectivity (fold)” value came out at 56 fold and the IC50 was determined as 177 nM.
Turning to `O=C(N1CCS(=O)(=O)CC1)N(Cc1ccc(-c2nnc(C(F)(F)F)o2)cc1)c1cccc(Cl)c1` [Compound 21395, N-(3-chlorophenyl)-N-(4-(5-(trifluoromethyl)-1,3,4-oxadiazol-2-yl)benzyl)thiomorpholine-4-carboxamide 1,1-dioxide], the “HDAC6 selectivity (fold)” value was found to be 137 fold and the IC50 is 73 nM.
On to `CC(C)(O)CN1CCN(C(=O)N(Cc2ccc(-c3nnc(C(F)(F)F)o3)cc2)c2ccccc2)CC1` [Compound 21396, 4-(2-hydroxy-2-methylpropyl)-N-phenyl-N-(4-(5-(trifluoromethyl)-1,3,4-oxadiazol-2-yl)benzyl)piperazine-1-carboxamide], for which the “HDAC6 selectivity (fold)” value was 34 fold and the IC50 was found to be 292 nM.
